Assay results as given in ChEMBL document CHEMBL1126058, “Development of potent and selective CCK-A receptor agonists from Boc-CCK-4: tetrapeptides containing Lys(N epsilon)-amide residues” (J Med Chem, 1992).
Where a SMILES comes first, the peptide text is derived from it. [ ]: non-standard residue; d: D form. The star is where a group is joined. X13 = O=C(c1ccc2cc(OS(=O)(=O)O)ccc2c1)*; X23 = O=C(/C=C/c1ccc(OS(=O)(=O)O)cc1)*; X28 = O=C(/C=C\c1cccc(OS(=O)(=O)O)c1)*; X15 = O=C(/C=C\c1ccc(C(F)(F)F)cc1)*; X20 = CC(=O)Oc1ccc2cc(C(=O)*)ccc2c1; X22 = O=C(CCc1cccc(OS(=O)(=O)O)c1)*; X17 = COc1ccc(/C=C\C(=O)*)c(OC)c1; X24 = O=C(/C=C/c1c[nH]c2ccccc12)*; X26 = O=C(/C=C\c1ccc(Cl)c(Cl)c1)*; NMeF = CN[C@@H](Cc1ccccc1)C(=O)O; X30 = O=C(CCc1ccc(C(F)(F)F)cc1)*; X10 = O=C(/C=C\c1ccc(Cl)cc1Cl)*; X14 = O=C(c1cc2cc(O)ccc2[nH]1)*; X31 = COc1ccc(/C=C\C(=O)*)cc1OC; X12 = O=C(c1cnc2cccc(O)c2c1)*; X21 = O=C(/C=C\c1ccc(Br)cc1)*; X25 = COc1ccc(/C=C\C(=O)*)cc1; X33 = O=C(/C=C/c1ccc(Cl)cc1)*; X11 = O=C(/C=C\c1ccc(O)cc1)*; X18 = O=C(c1cc2ccccc2[nH]1)*; X29 = O=C(/C=C\c1cccc(O)c1)*; X32 = Cc1ccc(/C=C\C(=O)*)cc1; X16 = O=C(/C=C\c1ccccc1O)*; X19 = O=C(/C=C\c1ccccc1)*; X27 = O=C(Cc1ccc(O)cc1)*; Boc = CC(C)(C)OC(=O)*

How the values were obtained:
Cavia porcellus [1] = species: Cavia porcellus; assay: Hydrolysis of phosphoinositide (PI) relative to maximal response elicited by CCK-8 in guinea pig pancreas.; format: functional
[2] = target: T1, Cholecystokinin receptor type A (Cavia porcellus, UniProt Q63931); assay: Inhibition of specific binding of [125I]BH-CCK-8 in guinea pig pancreas.
T1 sequence (Q63931 whole entry): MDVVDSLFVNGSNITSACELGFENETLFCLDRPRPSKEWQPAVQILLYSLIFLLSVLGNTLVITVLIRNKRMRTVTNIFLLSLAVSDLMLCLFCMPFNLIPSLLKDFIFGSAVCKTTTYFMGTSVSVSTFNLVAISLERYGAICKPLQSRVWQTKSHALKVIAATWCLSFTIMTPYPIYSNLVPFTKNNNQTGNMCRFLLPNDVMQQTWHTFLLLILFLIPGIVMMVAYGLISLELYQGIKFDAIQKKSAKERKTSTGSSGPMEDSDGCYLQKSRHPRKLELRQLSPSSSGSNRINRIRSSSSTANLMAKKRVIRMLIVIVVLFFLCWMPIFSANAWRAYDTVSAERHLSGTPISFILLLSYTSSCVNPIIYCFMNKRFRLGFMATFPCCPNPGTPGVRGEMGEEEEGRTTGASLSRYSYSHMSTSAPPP

Cavia porcellus [3] = species: Cavia porcellus; assay: Stimulation of amylase release in guinea pig pancreas; format: functional

Compound	Max (Cavia porcellus [1])	IC50 [2]	EC50 (Cavia porcellus [3])
CC(C)(C)OC(=O)N[C@@H](Cc1c[nH]c2ccccc12)C(=O)N[C@@H](CCCCNC(=O)/C=C\c1ccc(Cl)cc1Cl)C(=O)N[C@@H](CC(=O)O)C(=O)N[C@@H](Cc1ccccc1)C(N)=O (Boc-WK(X10)DF-NH2)	86%	130 nM	90 nM
CC(C)(C)OC(=O)N[C@@H](Cc1c[nH]c2ccccc12)C(=O)N[C@@H](CCCCNC(=O)/C=C\c1ccc(O)cc1)C(=O)N[C@@H](CC(=O)O)C(=O)N[C@@H](Cc1ccccc1)C(N)=O (Boc-WK(X11)DF-NH2)	76%	16 nM	3.9 nM
CC(C)(C)OC(=O)N[C@@H](Cc1c[nH]c2ccccc12)C(=O)N[C@@H](CCCCNC(=O)c1cnc2cccc(O)c2c1)C(=O)N[C@@H](CC(=O)O)C(=O)N[C@@H](Cc1ccccc1)C(N)=O (Boc-WK(X12)DF-NH2)	45%	7.7 nM	2.3 nM
CC(C)(C)OC(=O)N[C@@H](Cc1c[nH]c2ccccc12)C(=O)N[C@@H](CCCCNC(=O)c1ccc2cc(OS(=O)(=O)O)ccc2c1)C(=O)N[C@@H](CC(=O)O)C(=O)N[C@@H](Cc1ccccc1)C(N)=O (Boc-WK(X13)DF-NH2)	49%	2.9 nM	3.5 nM
CC(C)(C)OC(=O)N[C@@H](Cc1c[nH]c2ccccc12)C(=O)N[C@@H](CCCCNC(=O)c1cc2cc(O)ccc2[nH]1)C(=O)N[C@@H](CC(=O)O)C(=O)N[C@@H](Cc1ccccc1)C(N)=O (Boc-WK(X14)DF-NH2)	23%	14 nM	68 nM
CC(C)(C)OC(=O)N[C@@H](Cc1c[nH]c2ccccc12)C(=O)N[C@@H](CCCCNC(=O)/C=C\c1ccc(C(F)(F)F)cc1)C(=O)N[C@@H](CC(=O)O)C(=O)N[C@@H](Cc1ccccc1)C(N)=O (Boc-WK(X15)DF-NH2)	60%	220 nM	55 nM
CC(C)(C)OC(=O)N[C@@H](Cc1c[nH]c2ccccc12)C(=O)N[C@@H](CCCCNC(=O)/C=C\c1ccccc1O)C(=O)N[C@@H](CC(=O)O)C(=O)N[C@@H](Cc1ccccc1)C(N)=O (Boc-WK(X16)DF-NH2)	54%	110 nM	210 nM
COc1ccc(/C=C\C(=O)NCCCC[C@H](NC(=O)[C@H](Cc2c[nH]c3ccccc23)NC(=O)OC(C)(C)C)C(=O)N[C@@H](CC(=O)O)C(=O)N[C@@H](Cc2ccccc2)C(N)=O)c(OC)c1 (Boc-WK(X17)DF-NH2)	82%	38 nM	14 nM
CC(C)(C)OC(=O)N[C@@H](Cc1c[nH]c2ccccc12)C(=O)N[C@@H](CCCCNC(=O)c1cc2ccccc2[nH]1)C(=O)N[C@@H](CC(=O)O)C(=O)N[C@@H](Cc1ccccc1)C(N)=O (Boc-WK(X18)DF-NH2)	18%	39 nM	20 nM
CC(C)(C)OC(=O)N[C@@H](Cc1c[nH]c2ccccc12)C(=O)N[C@@H](CCCCNC(=O)/C=C\c1ccccc1)C(=O)N[C@@H](CC(=O)O)C(=O)N[C@@H](Cc1ccccc1)C(N)=O (Boc-WK(X19)DF-NH2)	52%	55 nM	30 nM
CC(=O)Oc1ccc2cc(C(=O)NCCCC[C@H](NC(=O)[C@H](Cc3c[nH]c4ccccc34)NC(=O)OC(C)(C)C)C(=O)N[C@@H](CC(=O)O)C(=O)N[C@@H](Cc3ccccc3)C(N)=O)ccc2c1 (Boc-WK(X20)DF-NH2)	49%	8 nM	11 nM
CC(=O)Oc1ccc2cc(C(=O)NCCCC[C@H](NC(=O)[C@H](Cc3c[nH]c4ccccc34)NC(=O)OC(C)(C)C)C(=O)N[C@@H](CC(=O)O)C(=O)N(C)[C@@H](Cc3ccccc3)C(N)=O)ccc2c1 (Boc-WK(X20)D[NMeF]-NH2)	58%	3.4 nM	29 nM
CC(C)(C)OC(=O)N[C@@H](Cc1c[nH]c2ccccc12)C(=O)N[C@@H](CCCCNC(=O)/C=C\c1ccc(Br)cc1)C(=O)N[C@@H](CC(=O)O)C(=O)N[C@@H](Cc1ccccc1)C(N)=O (Boc-WK(X21)DF-NH2)	72%	140 nM	38 nM
CC(C)(C)OC(=O)N[C@@H](Cc1c[nH]c2ccccc12)C(=O)N[C@@H](CCCCNC(=O)CCc1cccc(OS(=O)(=O)O)c1)C(=O)N[C@@H](CC(=O)O)C(=O)N[C@@H](Cc1ccccc1)C(N)=O (Boc-WK(X22)DF-NH2)	50%	180 nM	69 nM
CN(C(=O)[C@H](CC(=O)O)NC(=O)[C@H](CCCCNC(=O)/C=C/c1ccc(OS(=O)(=O)O)cc1)NC(=O)[C@H](Cc1c[nH]c2ccccc12)NC(=O)OC(C)(C)C)[C@@H](Cc1ccccc1)C(N)=O (Boc-WK(X23)D[NMeF]-NH2)	74%	22 nM	2.9 nM
CC(C)(C)OC(=O)N[C@@H](Cc1c[nH]c2ccccc12)C(=O)N[C@@H](CCCCNC(=O)/C=C/c1c[nH]c2ccccc12)C(=O)N[C@@H](CC(=O)O)C(=O)N[C@@H](Cc1ccccc1)C(N)=O (Boc-WK(X24)DF-NH2)	55%	19 nM	30 nM
COc1ccc(/C=C\C(=O)NCCCC[C@H](NC(=O)[C@H](Cc2c[nH]c3ccccc23)NC(=O)OC(C)(C)C)C(=O)N[C@@H](CC(=O)O)C(=O)N[C@@H](Cc2ccccc2)C(N)=O)cc1 (Boc-WK(X25)DF-NH2)	72%	30 nM	20 nM
CC(C)(C)OC(=O)N[C@@H](Cc1c[nH]c2ccccc12)C(=O)N[C@@H](CCCCNC(=O)/C=C\c1ccc(Cl)c(Cl)c1)C(=O)N[C@@H](CC(=O)O)C(=O)N[C@@H](Cc1ccccc1)C(N)=O (Boc-WK(X26)DF-NH2)	62%	49 nM	46 nM
CC(C)(C)OC(=O)N[C@@H](Cc1c[nH]c2ccccc12)C(=O)N[C@@H](CCCCNC(=O)Cc1ccc(O)cc1)C(=O)N[C@@H](CC(=O)O)C(=O)N[C@@H](Cc1ccccc1)C(N)=O (Boc-WK(X27)DF-NH2)	88%	1100 nM	30000 nM
CC(C)(C)OC(=O)N[C@@H](Cc1c[nH]c2ccccc12)C(=O)N[C@@H](CCCCNC(=O)/C=C\c1cccc(OS(=O)(=O)O)c1)C(=O)N[C@@H](CC(=O)O)C(=O)N[C@@H](Cc1ccccc1)C(N)=O (Boc-WK(X28)DF-NH2)	70%	39 nM	25 nM
CC(C)(C)OC(=O)N[C@@H](Cc1c[nH]c2ccccc12)C(=O)N[C@@H](CCCCNC(=O)/C=C\c1cccc(O)c1)C(=O)N[C@@H](CC(=O)O)C(=O)N[C@@H](Cc1ccccc1)C(N)=O (Boc-WK(X29)DF-NH2)	54%	22 nM	59 nM
CC(C)(C)OC(=O)N[C@@H](Cc1c[nH]c2ccccc12)C(=O)N[C@@H](CCCCNC(=O)CCc1ccc(C(F)(F)F)cc1)C(=O)N[C@@H](CC(=O)O)C(=O)N[C@@H](Cc1ccccc1)C(N)=O (Boc-WK(X30)DF-NH2)	77%	390 nM	30000 nM
COc1ccc(/C=C\C(=O)NCCCC[C@H](NC(=O)[C@H](Cc2c[nH]c3ccccc23)NC(=O)OC(C)(C)C)C(=O)N[C@@H](CC(=O)O)C(=O)N[C@@H](Cc2ccccc2)C(N)=O)cc1OC (Boc-WK(X31)DF-NH2)	61%	40 nM	17 nM
Cc1ccc(/C=C\C(=O)NCCCC[C@H](NC(=O)[C@H](Cc2c[nH]c3ccccc23)NC(=O)OC(C)(C)C)C(=O)N[C@@H](CC(=O)O)C(=O)N[C@@H](Cc2ccccc2)C(N)=O)cc1 (Boc-WK(X32)DF-NH2)	71%	71 nM	52 nM
CN(C(=O)[C@H](CC(=O)O)NC(=O)[C@H](CCCCNC(=O)/C=C/c1ccc(Cl)cc1)NC(=O)[C@H](Cc1c[nH]c2ccccc12)NC(=O)OC(C)(C)C)[C@@H](Cc1ccccc1)C(N)=O (Boc-WK(X33)D[NMeF]-NH2)	68%	15 nM	8.6 nM
